Test results taken from patent publication US20250237650A1 (priority 2021, published 2025).

Key:
[1] = tested on: WT, Alpha, Beta, Delta, and Omicron BA.1 spike proteins; type: binding, SARS-CoV-2
[2] = tested on: full-length trimeric Alpha, Beta, and Delta spikes; type: binding, SARS-CoV-2

heparin [reference compound]
binding affinities to VOC spikes (in words) [1]: an increase in affinity between HEP and Omicron spike over Delta and other VOC spikes

ACE2
binding affinities to VOC spikes (in words) [1]: within nanomolar range

heparin [HEP15, reference compound]
binding affinity to variant spikes relative to WT spike [2]: comparable binding affinity to WT spike
